Entries after “also recorded” stand apart in the source; their conditions may differ.
Experiments:
[1] = test system: BXPC3 cells; test: BALB/c SCID transplantable mouse model, BXPC3, HER-3 peptide mimics; format: in vivo; conditions: BXPC3, peptide mimics i.v. weekly
Method: To test the in vivo effects of the peptide mimics, two transplantable mouse models were used. Mice 4-5 weeks old were challenged with either BXPC3 or JIMT-1 cells subcutaneously into the flank. After tumor challenge, mice were treated intravenously with the peptide mimics starting at day zero (day of tumor challenge) and weekly for a total of 8-9 treatments. Tumor growth was monitored twice weekly and at the end of treatment. All mice were euthanized and weighed. Tumors were also extracted and weighed. Results display tumor volume and % tumor weight (FIG. 16 A-D). Both peptide constructs had the ability to attenuate tumor growth in mice challenged with BXPC3 cells. […] As a result, only the HER-3 (461-479) peptide was used in JIMT-1 tumor model.

[2] = test system: New Zealand white outbred rabbits; test: Immunogenicity of MVF HER-3 peptide constructs in rabbits (ELISA titers); format: in vivo, rabbit
Method: Two female New Zealand white outbred rabbits (Harlan) were immunized intramuscularly with 1 mg of MVF HER-3 (237-269) or MVF HER-3 (461-479) peptide dissolved in 500 μL PBS and emulsified in 500 μL of Montanide ISA720 vehicle with 100 μg muramyl dipeptide adjuvant, nor-MDP (N-acetylglucosamine-3yl-acetyl-L-alanyl-D-isoglutamine). Subsequent booster injections were given every three weeks after primary immunization. Sera of rabbits immunized with either MVF peptide were collected weekly, and complement was inactivated by heating to 56° C. for 30 minutes. The titer of anti-HER-3 peptide antibodies were quantified by ELISA. The MVF HER-3 (237-269) and MVF HER-3 (461-479) peptides were highly immunogenic by three weeks after the third immunization. Antibody titers against MVF HER-3 (461-479) and MVF HER-3 (237-269) were ≥32,000 and ≥128,000, respectively (FIGS. 9 A & B). High antibody titers were also generated against B cell epitope constructs. HER-3 (461-479) and HER-3 (237-269) antibody titers were ≥16,000 and ≥128,000, respectively (Data not shown). Total IgG was purified from high-titered sera on a protein A/G column (Pierce, Rockford, Ill.) and eluted antibodies were concentrated and exchanged in PBS using 100 kDa cutoff centrifuge filter units (Millipore). Antibody concentrations were determined by Coomassie plus protein assay reagent kit (Pierce).

[3] = test system: BxPC3 cells; test: MTT inhibition assay with HER-3 peptide mimics, BxPC3; format: cell-based, human; conditions: 72 hours, HRG stimulated
Method: The HER-3 peptide mimics and peptide vaccine antibodies may provide anti-tumor activity by blocking dimerization or ligand binding of the HER-3 receptor. To test the ability of the chimeric peptides to elicit antitumor effects, HER-3 positive cells were examined in a MTT inhibition assay. The anti-proliferative effects of the peptide mimics were tested at various concentrations (FIG. 13). Taxol, an inhibitor of mitosis, was used as a positive control (data not shown). Cells were seeded in 96 well flat bottom plates at 1×10^4 cells/well in 100 μl growth media and allowed to adhere overnight at 37° C. Media was removed from the wells and replaced with HER3 peptides made up in 1% growth media. Plates were incubated for 1 hour at 37° C., and subsequently stimulated with either 50 ng/mL HRG. Plates were incubated an additional 72 hours at 37° C. before 25 μL of 5 mg/mL MTT was added to each well. Plates were incubated for 2 hours at 37° C., then 100 μL extraction buffer (20% SDA, 50% DMF, pH 4.7) was added. Plates were incubated overnight at 37° C. and read on an ELISA reader at 570 nm. Percent inhibition was calculated by the following equation: (untreated-treated)/untreated×100. Error bars represent SEM of three separate experiments. […] The HER-3 peptide mimics inhibited proliferation of BXPC3, MCF-7 and JIMT-1 cell lines in a dose-dependent manner. […]

[4] = Immunization of transgenic mice with chimeric peptides (summary statement); format: in vivo, mouse; conditions: immunization of transgenic mice with one or more of the chimeric peptides
[5] = test system: Met-1 cells; test: FVB/n Met-1 transplantable breast tumor model; format: in vivo, mouse; conditions: peptide mimics i.v. weekly; for tumor growth and development: vs untreated and irrelevant peptide
Method: Antitumor effects of immunization with HER-1 peptide vaccines and chimeric peptides in Fvb/n breast cancer model The Fvb/n transplantable model of HER-family dependent breast cancer represents a good model for human breast cancer. The peptide vaccines were dissolved in water and emulsified in Montanide ISA 720 (1:1) and […] (N-acetylglucosamine-3yl-acetyl-1-alanyl-D-isoglutamine). Female wild-type FVB/n mice (Charles River Laboratories) at the age of 5 to 6 weeks were immunized three times at 3-week intervals with […], and 14 days after the third immunization, the mice were challenged s.c. with Met-1 cells (200,000 per mouse). Met-1 cells were derived from the PyMT-transgenic mouse model with FVB/n background. Tumor growth was monitored for up to 6 weeks after challenge. During immunization, blood was drawn biweekly and used in ELISA to monitor Ab titers. In the case of treatment with the chimeric peptides, the mice were simply challenged with Met-1 cells and treated weekly i.v. with […] for up to 6 weeks beginning at day 0. The mice were euthanized at the end of treatment and tumors extracted and weighed.
Tumor tissues were formalin fixed, embedded in paraffin, and stained immunohistochemically for CD31 and Ki-67. The tissue blocks were cut into […], deparaffinized in xylol, and then rehydrated with different grades of alcohol. The rehydrated sections were then washed with distilled water and placed in a microwave oven for 15 minutes. The slides were then blocked and incubated for 40 minutes at 20° C. with primary Abs specific for Ki-67 and CD31.
To evaluate the inhibitory effects of the peptide vaccines in vivo, the FVB/n transplantable mouse model was used in which Met-1 cells from FVB/n background were injected in the mammary fat pad of wild-type FVB/n mice after immunization with the chimeric MVF HER-1 peptides as shown in the immunization schedule (data not shown). Tumor development in this model is dependent on the HER family receptor overexpression. All mice were immunized at 5 to 6 weeks of age and received two boosters at 3-week intervals. As depicted in FIG. 5, the vaccine constructs were immunogenic in the mice, and all of the mice had relatively high titers of the Abs (greater than 40,000). Mice were challenged with Met-1 cells and monitored weekly for 6 weeks.
To test the in vivo effects of the peptide mimics, the same FVB/n model was used as in the case of immunization, but in this experiment, wild-type mice were challenged with Met-1 cells and treated i.v. with the peptide mimics. […] In assessing how the peptide inhibitors exert their effects in vivo, the tumor sections were analyzed after treatment with the peptide mimics for blood vessel density and actively proliferating cells. […] The effect on proliferating cells was most evident in the case of treatment with the 382-410 and the 418-435 constructs (FIG. 7C).

[6] = test system: BxPC-3 pancreatic and JIMT-1 breast cancer cells; test: SCID transplantable breast and pancreatic mouse model, IGF-1R peptides; format: in vivo; conditions: 200 μg i.v. weekly for 7 weeks; P values <0.05
Method: To test the in vivo effects of the chimeric peptides, a transplantable breast and pancreatic mouse model was used. BxPC-3 pancreatic and JIMT-1 breast cancer cells were injected subcutaneously into the flanks of SCID mice. After tumor challenge, the mice were treated intravenously with the IGF-1R peptide mimics starting at day zero (day of tumor challenge) and weekly for a total of 7 weeks. Tumor growth was monitored twice weekly and at the end of treatment, all mice were euthanized and the tumors extracted and weighed and the percentage tumor weight calculated.

[7] = biological target: T1, IGF-1R (Homo sapiens, UniProt P08069); test: Human-phospho-IGF-1R sandwich ELISA; format: cell-based; conditions: MCF-7, JIMT-1 and BxPC-3 cells
T1 construct: IGF-1 signaling in MCF-7, JIMT-1 and BxPC-3 cells were analyzed using protein lysates after treatment; endogenous in cells; host or cells: MCF-7, JIMT-1 (human breast cancer) and BxPC-3 (human pancreatic cancer) cells
Method: The effects of chimeric peptides and antipeptide antibodies on IGF-1 signaling in MCF-7, JIMT-1 and BxPC-3 cells were analyzed using protein lysates after treatment and measurement of phosphorylated levels of the receptors in a sandwich ELISA method using Human-phospho-IGF-1R ELISA kit from R&D diagnostics. […] FIG. 22 A-C is treatment with peptide mimics and FIG. 22-D-F is treatment with peptide vaccine antibodies.

[8] = test system: BxPC-3, MCF-7 and JIMT-1 cancer cells; test: MTT proliferation assay with IGF-1R peptide mimics; format: cell-based, human; conditions: 25, 50, 100, 150 μg/ml, three days
Method: The effects of treatment with the IGF-1R peptide mimics were evaluated as inhibitors on proliferation of human pancreatic (BxPC-3) and breast (MCF-7 and JIMT-1) cancer cells. Ligand binding to the IGF-1 receptor results in activation that causes increase proliferation of the receptor and intracellular signaling. Accordingly, the effects of the IGF-1R peptide mimics on ligand binding inhibition and inhibition of cancer cell line proliferation were determined. To measure proliferation, the MTT assay was used where the cells were treated with the inhibitors at different concentrations and incubated for three days before adding MTT.

[9] = test system: A549 lung cancer cells; test: BALB/c SCID transplantable lung tumor model; format: in vivo, mouse; parameters: dose or concentration left out as unconfirmed; conditions: i.v. weekly, peptide mimics or cetuximab
Method: […] Tumor growth was measured twice weekly using vernier calipers, and at the end of the experiment, the tumors were extracted and weighed.

## ERLDIKHNRPRRDCVAEGK (Ac-ERLDIKHNRPRRDCVAEGK-NH2; listed as Homo sapiens) [HER-3 (461-479), peptide mimic acetylated and amidated]
[1]
  % tumor weight: significantly decreased the % tumor weight
  tumor growth: greater anti-tumor effects
[2]; sera of rabbits immunized with MVF HER-3 peptides, data not shown
  antibody titers against B cell epitope constructs: ≥ 16,000

## FVMLNYNTNSSHALRQLRLTQLTE (Ac-FVMLNYNTNSSHALRQLRLTQLTE-NH2; listed as Homo sapiens) [HER-3 (99-122), peptide mimic acetylated and amidated]
[3]
  Percent inhibition of proliferation: ~80%

## MVF HER-3 (461-479): HER-3 (461-479) synthesized collinearly with modified MVF epitope (SEQ ID NO:12) and GPSL linker (KLLSLIKGVIVHRLEGVEGPSLERLDIKHNRPRRDCVAEGK)
[2]; three weeks after the third immunization
  Antibody titers against MVF peptide: ≥ 32,000
[4]
  tumor growth after immunization: significant delay of tumor growth

## KIEFMYPPPYLDNERSNGTI [irrelevant peptide, negative control peptide, reference compound]
[5]
  tumor growth and development: no inhibitory effects

## ACPPNTYRFEGWRCVDRDF (Ac-ACPPNTYRFEGWRCVDRDF-NH2; cysteine pairing not given here; listed as Homo sapiens) [IGF-1R (234-252), peptide mimic acetylated and amidated]
[6]
  percentage tumor weight: significantly decreased the percentage tumor weight
[7]
  phosphorylated IGF-1R, treatment with peptides: able to downregulate the expression of phosphorylated IGF-1R
[8]
  inhibition of proliferation (MTT): inhibition of all three cell lines which was dose dependent; also recorded: dose-dependent inhibition of proliferation

## LLFRVAGLESLGDLFPNLTVIRGWKL (Ac-LLFRVAGLESLGDLFPNLTVIRGWKL-NH2; listed as Homo sapiens) [IGF-1R (56-81), peptide mimic acetylated and amidated]
[6]
  percentage tumor weight: significantly decreased the percentage tumor weight
[7]
  phosphorylated IGF-1R, treatment with peptides: able to downregulate the expression of phosphorylated IGF-1R
[8]
  inhibition of proliferation (MTT): inhibition of all three cell lines which was dose dependent; also recorded: dose-dependent inhibition of proliferation

## SLNITSLGLRSLKEISDG (Ac-SLNITSLGLRSLKEISDG-NH2; listed as Homo sapiens) [HER-1 (418-435), peptide mimic acetylated and amidated]
[9]
  tumor growth and development: significantly delayed tumor growth and development
[5]
  delay in tumor onset: approximately 2 weeks
  microvascular density (CD31) in tumor sections: significant reduction in microvascular density
  percentage tumor weight: greater inhibitory effects
  proliferating cells (Ki-67) in tumor sections: most evident
  tumor growth and development: decrease in tumor growth and development

## LIQAWPENRTDLHAFENLEIIRGRTKQHG (Ac-LIQAWPENRTDLHAFENLEIIRGRTKQHG-NH2; listed as Homo sapiens) [HER-1 (382-410), peptide mimic acetylated and amidated]
[9]
  tumor growth and development: significantly delayed tumor growth and development
[5]
  delay in tumor onset: approximately 2 weeks
  microvascular density (CD31) in tumor sections: significant reduction in microvascular density
  percentage tumor weight: greater inhibitory effects
  proliferating cells (Ki-67) in tumor sections: most evident
  tumor growth and development: decrease in tumor growth and development
